{
  "source": "patent US20250082643A1",
  "about": "“COMBINATION THERAPY FOR PIK3CA-ASSOCIATED DISEASES OR DISORDERS” (Faeth Therapeutics, Inc., priority 2021, published 2025)",
  "key": {"[1]": {"tested_on": "solid tumors with PIK3CA mutations with or without PTEN loss", "details": "human, in vivo", "source_text": "The primary objective of the study is to evaluate the safety, feasibility, and pharmacokinetic impact of intrasubject modulated dosing for serabelisib when co-administered with a study ISD in a pilot cohort of subjects with solid tumors with PIK3CA mutations with or without PTEN loss. […] For the expansion cohort, nab-paclitaxel will also be administered with serabelisib when co-administered with a study ISD. […] FIG. 4 depicts a representation of the study cohorts of the clinical trial using serabelisib in combination with an insulin suppressing diet and nab-paclitaxel in subjects with cancer.\nCohort 1a (Dose Modification): The primary objective of the study is to evaluate the safety, compliance, and pharmacokinetic (PK) impact of intrasubject modulated dosing for serabelisib in combination with a Study ISD in a pilot cohort. […] Endpoints include: ORR, defined as the proportion of subjects who have best overall response of either CR or PR, as determined by each site; Progression free survival (PFS), defined as the time from date of first dose of Study Drug (Visit 1) to the date of first evidence of disease progression or death from any cause (whichever occurs first); Overall survival (OS) and landmark survival; Duration of response (DoR); and Disease control rate (DCR; CR+PR+stable disease [SD]). […]"}, "[2]": {"tested_on": "other class I PI3K isoforms", "details": "relative to PI3Kα"}, "[3]": {"target": "mammalian target of rapamycin (mTOR) (Homo sapiens, UniProt P42345)", "details": "relative to PI3Kα"}, "PI3Kα": {"target": "PI3Kα (Homo sapiens, UniProt P42336)", "details": "biochemical assays; read-out: half maximal inhibitory concentration (IC50); cited from earlier work"}, "[4]": {"tested_on": "downstream signaling of PI3K", "details": "cell lines with hyperactivation of the pathway; cited from earlier work"}, "a range of cell lines": {"tested_on": "a range of cell lines", "details": "cited from earlier work"}, "[5]": {"tested_on": "human breast cancer cells harboring mutations in the PIK3CA gene", "details": "mouse xenograft, PIK3CA-mutated human breast cancer cells; cited from earlier work"}, "[6]": {"tested_on": "renal cell carcinoma xenograft with mutations in the PTEN gene", "details": "cited from earlier work"}, "[7]": {"details": "cited from earlier work"}, "[8]": {"details": "in vitro metabolism, across test species; cited from earlier work"}, "CYP3A4": {"target": "CYP3A4 (Homo sapiens, UniProt P08684)", "sequence (P08684 whole entry)": "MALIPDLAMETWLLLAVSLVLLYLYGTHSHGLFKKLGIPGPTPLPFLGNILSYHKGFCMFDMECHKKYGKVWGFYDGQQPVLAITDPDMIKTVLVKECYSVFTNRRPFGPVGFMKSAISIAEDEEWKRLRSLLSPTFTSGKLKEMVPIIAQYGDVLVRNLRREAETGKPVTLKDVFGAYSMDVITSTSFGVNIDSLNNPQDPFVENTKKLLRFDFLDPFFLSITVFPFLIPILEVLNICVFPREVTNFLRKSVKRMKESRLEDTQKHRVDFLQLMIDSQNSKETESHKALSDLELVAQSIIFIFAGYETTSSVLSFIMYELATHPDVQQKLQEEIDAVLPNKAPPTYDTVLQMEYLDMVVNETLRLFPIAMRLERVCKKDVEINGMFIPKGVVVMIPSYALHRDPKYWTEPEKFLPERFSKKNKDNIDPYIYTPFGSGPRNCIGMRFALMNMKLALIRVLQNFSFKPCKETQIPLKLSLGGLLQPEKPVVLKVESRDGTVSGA", "details": "normalized for liver content; cited from earlier work"}, "CYP3A4/5 [9]": {"tested_on": "CYP3A4/5", "details": "cited from earlier work"}, "CYP2D6": {"target": "CYP2D6 (Homo sapiens, UniProt P10635)", "sequence (P10635 whole entry)": "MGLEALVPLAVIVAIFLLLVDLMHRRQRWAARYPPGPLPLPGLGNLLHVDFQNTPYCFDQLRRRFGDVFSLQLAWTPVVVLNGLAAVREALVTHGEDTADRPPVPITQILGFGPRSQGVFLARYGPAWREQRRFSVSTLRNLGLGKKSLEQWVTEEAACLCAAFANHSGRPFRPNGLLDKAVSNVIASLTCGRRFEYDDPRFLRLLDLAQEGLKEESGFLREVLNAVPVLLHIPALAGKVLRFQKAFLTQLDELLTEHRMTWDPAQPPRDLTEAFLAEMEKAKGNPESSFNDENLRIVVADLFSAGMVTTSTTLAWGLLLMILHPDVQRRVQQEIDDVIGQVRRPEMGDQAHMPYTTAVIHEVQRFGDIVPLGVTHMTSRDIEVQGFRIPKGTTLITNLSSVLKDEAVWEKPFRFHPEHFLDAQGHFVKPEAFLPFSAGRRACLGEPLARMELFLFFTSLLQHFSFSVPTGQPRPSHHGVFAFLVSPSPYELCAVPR", "details": "cited from earlier work"}, "CYP2C19": {"target": "CYP2C19 (Homo sapiens, UniProt P33261)", "sequence (P33261 whole entry)": "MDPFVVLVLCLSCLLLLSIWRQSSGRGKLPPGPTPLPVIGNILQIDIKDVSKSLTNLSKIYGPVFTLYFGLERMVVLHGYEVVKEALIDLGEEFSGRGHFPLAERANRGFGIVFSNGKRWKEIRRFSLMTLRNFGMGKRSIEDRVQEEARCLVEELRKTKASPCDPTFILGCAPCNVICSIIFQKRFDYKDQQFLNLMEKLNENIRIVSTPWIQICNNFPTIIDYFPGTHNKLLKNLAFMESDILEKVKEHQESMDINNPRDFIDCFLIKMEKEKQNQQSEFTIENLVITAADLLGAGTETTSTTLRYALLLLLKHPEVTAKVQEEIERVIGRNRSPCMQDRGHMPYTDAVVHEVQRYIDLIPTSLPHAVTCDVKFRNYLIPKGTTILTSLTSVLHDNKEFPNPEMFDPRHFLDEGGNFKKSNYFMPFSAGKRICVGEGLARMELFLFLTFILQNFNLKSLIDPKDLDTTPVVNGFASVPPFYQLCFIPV", "details": "cited from earlier work"}, "CYP2C9": {"target": "CYP2C9 (Homo sapiens, UniProt P11712)", "details": "cited from earlier work"}, "CYP2C8": {"target": "CYP2C8 (Homo sapiens, UniProt P10632)", "sequence (P10632 whole entry)": "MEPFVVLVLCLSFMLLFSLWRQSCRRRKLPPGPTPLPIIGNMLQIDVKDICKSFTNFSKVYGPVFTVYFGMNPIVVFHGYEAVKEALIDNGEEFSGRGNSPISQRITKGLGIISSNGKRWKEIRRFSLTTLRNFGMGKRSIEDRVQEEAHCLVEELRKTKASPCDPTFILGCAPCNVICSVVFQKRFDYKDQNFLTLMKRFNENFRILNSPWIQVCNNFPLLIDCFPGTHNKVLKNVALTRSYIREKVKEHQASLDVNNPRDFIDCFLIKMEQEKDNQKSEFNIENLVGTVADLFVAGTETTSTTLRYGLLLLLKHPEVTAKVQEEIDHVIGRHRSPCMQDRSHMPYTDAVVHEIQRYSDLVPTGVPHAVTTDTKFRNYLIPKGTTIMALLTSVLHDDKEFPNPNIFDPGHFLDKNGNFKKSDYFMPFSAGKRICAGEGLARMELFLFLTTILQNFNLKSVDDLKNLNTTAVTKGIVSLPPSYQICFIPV", "details": "cited from earlier work"}, "CYP2B6 [10]": {"target": "CYP2B6 (Homo sapiens, UniProt P20813)", "sequence (P20813 whole entry)": "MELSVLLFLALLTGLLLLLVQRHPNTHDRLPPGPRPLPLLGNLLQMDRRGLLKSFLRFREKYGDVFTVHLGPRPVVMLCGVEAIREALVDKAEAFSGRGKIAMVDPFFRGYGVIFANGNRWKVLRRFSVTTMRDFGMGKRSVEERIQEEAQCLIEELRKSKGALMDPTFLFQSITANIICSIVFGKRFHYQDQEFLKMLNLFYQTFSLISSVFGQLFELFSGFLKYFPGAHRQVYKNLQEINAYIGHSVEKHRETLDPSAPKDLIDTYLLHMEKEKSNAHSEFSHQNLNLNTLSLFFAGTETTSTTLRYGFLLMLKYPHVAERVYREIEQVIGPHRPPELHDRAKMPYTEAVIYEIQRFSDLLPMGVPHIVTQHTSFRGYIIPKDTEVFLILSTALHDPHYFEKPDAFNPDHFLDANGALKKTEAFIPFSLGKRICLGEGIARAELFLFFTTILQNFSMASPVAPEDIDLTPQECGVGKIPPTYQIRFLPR", "details": "cited from earlier work"}, "CYP1A2 [11]": {"target": "CYP1A2 (Homo sapiens, UniProt P05177)", "sequence (P05177 whole entry)": "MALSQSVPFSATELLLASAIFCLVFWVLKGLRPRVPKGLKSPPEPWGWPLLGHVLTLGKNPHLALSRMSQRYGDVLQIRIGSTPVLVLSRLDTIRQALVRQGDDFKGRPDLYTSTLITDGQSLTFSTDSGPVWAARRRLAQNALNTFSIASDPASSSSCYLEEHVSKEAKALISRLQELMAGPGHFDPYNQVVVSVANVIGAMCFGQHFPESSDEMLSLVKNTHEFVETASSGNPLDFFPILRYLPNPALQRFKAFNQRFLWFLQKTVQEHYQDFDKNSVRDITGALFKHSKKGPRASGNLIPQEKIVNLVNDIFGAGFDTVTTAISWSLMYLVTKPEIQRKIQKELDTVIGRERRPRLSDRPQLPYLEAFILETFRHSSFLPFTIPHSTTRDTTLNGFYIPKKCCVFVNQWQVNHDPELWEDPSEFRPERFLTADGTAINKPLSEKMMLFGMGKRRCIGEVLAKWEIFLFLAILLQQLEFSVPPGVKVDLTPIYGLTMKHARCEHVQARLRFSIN", "details": "cited from earlier work"}, "CYP1A2 [12]": {"tested_on": "CYP1A2", "details": "cited from earlier work"}, "CYP2B6 [13]": {"tested_on": "CYP2B6", "details": "cited from earlier work"}, "CYP3A4/5 [14]": {"tested_on": "CYP3A4/5", "details": "cited from earlier work", "remark": "listed apart in the source"}, "[15]": {"target": "organic cation transporter (OCT) 1 (Homo sapiens, UniProt O15245)", "sequence (O15245 whole entry)": "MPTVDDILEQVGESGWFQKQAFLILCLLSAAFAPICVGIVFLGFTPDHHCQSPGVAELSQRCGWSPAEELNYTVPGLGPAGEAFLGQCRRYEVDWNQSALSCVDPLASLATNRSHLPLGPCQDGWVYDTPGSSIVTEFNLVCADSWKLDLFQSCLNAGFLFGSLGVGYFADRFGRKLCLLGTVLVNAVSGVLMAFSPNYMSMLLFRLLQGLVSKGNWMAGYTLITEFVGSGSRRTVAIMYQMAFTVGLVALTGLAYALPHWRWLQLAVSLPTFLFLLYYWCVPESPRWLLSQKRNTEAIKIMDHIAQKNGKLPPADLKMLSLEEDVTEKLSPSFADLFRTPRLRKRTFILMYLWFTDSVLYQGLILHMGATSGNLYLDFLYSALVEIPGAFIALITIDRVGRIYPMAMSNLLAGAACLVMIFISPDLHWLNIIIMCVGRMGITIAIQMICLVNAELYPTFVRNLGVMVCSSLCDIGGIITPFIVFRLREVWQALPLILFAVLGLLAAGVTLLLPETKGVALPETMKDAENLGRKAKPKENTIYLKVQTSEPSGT", "details": "cited from earlier work"}, "OCT2": {"target": "OCT2 (Homo sapiens, UniProt O15244)", "sequence (O15244 whole entry)": "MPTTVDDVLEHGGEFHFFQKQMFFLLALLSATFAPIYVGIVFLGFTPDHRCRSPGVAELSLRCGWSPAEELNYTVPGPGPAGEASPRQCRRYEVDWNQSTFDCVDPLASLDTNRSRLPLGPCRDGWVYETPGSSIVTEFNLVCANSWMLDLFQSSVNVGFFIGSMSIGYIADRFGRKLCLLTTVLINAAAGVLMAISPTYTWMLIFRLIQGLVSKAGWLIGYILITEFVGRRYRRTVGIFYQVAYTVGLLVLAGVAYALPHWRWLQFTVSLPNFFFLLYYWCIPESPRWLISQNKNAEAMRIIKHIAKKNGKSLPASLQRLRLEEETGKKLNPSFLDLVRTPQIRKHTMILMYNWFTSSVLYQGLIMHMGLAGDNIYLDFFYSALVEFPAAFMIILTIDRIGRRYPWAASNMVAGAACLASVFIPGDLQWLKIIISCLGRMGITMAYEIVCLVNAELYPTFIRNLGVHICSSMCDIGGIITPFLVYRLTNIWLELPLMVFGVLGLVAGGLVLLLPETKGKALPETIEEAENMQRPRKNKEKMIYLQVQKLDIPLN", "details": "cited from earlier work"}, "[16]": {"target": "breast cancer resistance protein (BCRP) (Homo sapiens, UniProt Q9UNQ0)", "sequence (Q9UNQ0 whole entry)": "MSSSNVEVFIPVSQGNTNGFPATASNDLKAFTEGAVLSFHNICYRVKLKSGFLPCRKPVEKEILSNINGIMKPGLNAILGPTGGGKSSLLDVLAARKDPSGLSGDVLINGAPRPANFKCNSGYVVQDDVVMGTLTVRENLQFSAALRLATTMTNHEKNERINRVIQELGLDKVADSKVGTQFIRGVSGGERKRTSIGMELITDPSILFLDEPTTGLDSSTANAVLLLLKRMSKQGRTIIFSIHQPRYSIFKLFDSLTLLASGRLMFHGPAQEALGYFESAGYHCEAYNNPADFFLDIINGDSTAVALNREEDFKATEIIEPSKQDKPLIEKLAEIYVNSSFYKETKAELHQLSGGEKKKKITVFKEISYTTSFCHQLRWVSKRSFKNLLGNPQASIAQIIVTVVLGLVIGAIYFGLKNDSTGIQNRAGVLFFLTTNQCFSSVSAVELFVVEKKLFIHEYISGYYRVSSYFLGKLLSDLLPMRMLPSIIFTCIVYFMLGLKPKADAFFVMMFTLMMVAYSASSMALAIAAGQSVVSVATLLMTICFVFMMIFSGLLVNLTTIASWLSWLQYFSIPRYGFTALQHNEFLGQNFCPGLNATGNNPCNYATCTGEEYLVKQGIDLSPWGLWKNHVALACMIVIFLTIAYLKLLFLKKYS", "details": "cited from earlier work"}, "solid tumors": {"tested_on": "solid tumors", "details": "cited from earlier work"}, "[17]": {"details": "oral administration, various animal species"}},
  "data": [
    {"smiles": "Nc1nc2cc(-c3ccc4ncc(C(=O)N5CCOCC5)n4c3)ccc2o1", "note": "[serabelisib, 6-(2-Aminobenzo[d]oxazol-5-yl) imidazo[1,2-a]pyridine-3-yl morpholino methanone]", "values": [
      {"measurement": "drug accumulation between dosing cycles", "setting": "[1]", "result": "No meaningful drug accumulation"},
      {"measurement": "selectivity over other class I PI3K isoforms", "setting": "[2]", "result": "> 50", "unit": "fold"},
      {"measurement": "selectivity over mTOR", "setting": "[3]", "result": "> 50", "unit": "fold"},
      {"measurement": "IC50", "setting": "PI3Kα", "result": 0.02, "unit": "µM"},
      {"measurement": "downstream signaling of PI3K", "setting": "[4]", "result": "blocks downstream signaling of PI3K"},
      {"measurement": "antiproliferative activity", "setting": "a range of cell lines", "result": "demonstrates antiproliferative activity"},
      {"measurement": "tumor growth inhibition", "setting": "[5]", "result": "strong tumor growth inhibition"},
      {"measurement": "efficacy on xenograft", "setting": "[6]", "result": "no efficacy"},
      {"measurement": "tissue distribution of radiolabeled drug", "setting": "[7]; following oral dosing", "result": "well distributed to all tissues"},
      {"measurement": "absorption", "setting": "[7]; [17]", "result": "rapid absorption"},
      {"measurement": "bioavailability", "setting": "[7]; [17]", "result": "high bioavailable"},
      {"measurement": "excretion", "setting": "[7]; urine and feces", "result": "majority of the drug is excreted in urine and feces as the parent compound"},
      {"measurement": "unique human metabolite", "setting": "[8]", "result": "no unique human metabolite was identified"},
      {"measurement": "share of metabolism by CYP3A4", "setting": "CYP3A4", "result": 72, "unit": "%"},
      {"measurement": "inhibition of CYP3A4/5", "setting": "CYP3A4/5 [9]", "result": "low potential for inhibition"},
      {"measurement": "inhibition of CYP2D6", "setting": "CYP2D6", "result": "low potential for inhibition"},
      {"measurement": "inhibition of CYP2C19", "setting": "CYP2C19", "result": "low potential for inhibition"},
      {"measurement": "inhibition of CYP2C9", "setting": "CYP2C9", "result": "low potential for inhibition"},
      {"measurement": "inhibition of CYP2C8", "setting": "CYP2C8", "result": "low potential for inhibition"},
      {"measurement": "inhibition of CYP2B6", "setting": "CYP2B6 [10]", "result": "low potential for inhibition"},
      {"measurement": "inhibition of CYP1A2", "setting": "CYP1A2 [11]", "result": "low potential for inhibition"},
      {"measurement": "induction of CYP1A2 activity", "setting": "CYP1A2 [12]", "result": "does not induce"},
      {"measurement": "induction of CYP2B6 activity", "setting": "CYP2B6 [13]", "result": "does not induce"},
      {"measurement": "induction of CYP3A4/5 activity", "setting": "CYP3A4/5 [14]", "result": "does not induce"},
      {"measurement": "inhibition of OCT1", "setting": "[15]", "result": "inhibitor"},
      {"measurement": "inhibition of OCT2", "setting": "OCT2", "result": "inhibitor"},
      {"measurement": "inhibition of BCRP", "setting": "[16]", "result": "inhibitor"},
      {"measurement": "subjects with related serious adverse events (SAEs)", "setting": "solid tumors; 3CDW cohorts", "result": 7, "unit": "%"},
      {"measurement": "MTD", "setting": "solid tumors; Phase 1 study, intermittent 3CDW schedule", "result": 900, "unit": "mg"},
      {"measurement": "related adverse event: decreased appetite", "setting": "solid tumors; across all doses and regimens", "result": 23, "unit": "%"},
      {"measurement": "related adverse event: diarrhea", "setting": "solid tumors; across all doses and regimens", "result": 31, "unit": "%"},
      {"measurement": "related adverse event: hyperglycemia", "setting": "solid tumors; across all doses and regimens", "result": 37, "unit": "%"},
      {"measurement": "related adverse event: increased aspartate aminotransferase (AST)", "setting": "solid tumors; across all doses and regimens", "result": 20, "unit": "%"},
      {"measurement": "related adverse event: nausea", "setting": "solid tumors; across all doses and regimens", "result": 50, "unit": "%"},
      {"measurement": "related adverse event: vomiting", "setting": "solid tumors; across all doses and regimens", "result": 38, "unit": "%"},
      {"measurement": "subjects with gastrointestinal dose-limiting toxicity (DLT)", "setting": "solid tumors; dose escalated from 900 mg to 1200 mg, 3CDW regimen", "result": "2 of 3"},
      {"measurement": "PK profile", "setting": "solid tumors; human, in vivo", "result": "linear PK profile"},
      {"measurement": "cases of drug-induced liver injury (DILI)", "setting": "solid tumors; prior serabelisib clinical trials", "result": "no cases of DILI have been reported"},
      {"measurement": "doses giving biologically active exposures", "setting": "solid tumors; results from skin biopsy samples", "result": "> 200", "unit": "mg"}
    ]}
  ]
}
